Results reported in BindingDB's records for doi:10.1111/cbdd.12681 (Peking University, 2016).

The molecules below were run against T1, Dihydrofolate reductase (Homo sapiens, UniProt P00374) (assay: DHFR Inhibition Assay). Conditions: pH 7.5.
T1 sequence (P00374 whole entry): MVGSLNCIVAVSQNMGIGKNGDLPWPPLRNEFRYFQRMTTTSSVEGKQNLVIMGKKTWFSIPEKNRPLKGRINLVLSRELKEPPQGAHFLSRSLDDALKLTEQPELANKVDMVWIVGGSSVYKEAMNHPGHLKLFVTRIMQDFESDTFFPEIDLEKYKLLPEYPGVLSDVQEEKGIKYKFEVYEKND
Method: The recombinant human (rh) DHFR was purchased from Sigma-Aldrich (Shanghai, China). All rhDHFR enzymes were assayed spectrophotometrically in a solution containing 0.1 mM dihydrofolate, 0.3 mM NADPH and 100 mM KCl at pH 7.5 and 32 °C. The reaction was initiated with an amount of enzyme yielding a change in O.D. at 340 nm measured by microplate spectrophotometer.
With `Nc1nc(N)c2c(n1)CCC(CCc1ccc(C(=O)N[C@@H](CCC(=O)O)C(=O)O)cc1)N2` (stereo partly drawn) [4-[2-(2,4-Diamino-5,6,7,8-tetrahydropyrido[3,2-d]pyrimidin-6-yl)ethyl]benzoyl-L-glutamic acid (17a)] the IC50 was 40 nM.
Work on `C=CCN1c2c(N)nc(N)nc2CCC1CCc1ccc(C(=O)N[C@@H](CCC(=O)O)C(=O)O)cc1` (stereo partly drawn) [4-[2-(2,4-Diamino-5-allyl-5,6,7,8-tetrahydropyrido[3,2-d]pyrimidin-6-yl)ethyl]benzoyl-L-glutamic acid (20a)] yielded an IC50 of 706 nM.
For `Nc1nc(N)c2c(n1)CCC(CCc1ccc(C(=O)N[C@@H](CCC(=O)O)C(=O)O)cc1)N2C=O` (stereo partly drawn) [4-[2-(2,4-Diamino-5-formyl-5,6,7,8-tetrahydropyrido[3,2-d]pyrimidin-6-yl)ethyl]benzoyl-L-glutamic acid (19a)], the IC50 was 41 nM.
Work on `C=CCN1c2c(O)nc(N)nc2CCC1CCc1ccc(C(=O)N[C@@H](CCC(=O)O)C(=O)O)cc1` (stereo partly drawn) [4-[2-(2-Amino-4-hydroxy-5-allyl-5,6,7,8-tetrahydropyrido[3,2-d]pyrimidin-6-yl)ethyl]benzoyl-L-glutamic acid (23a)] yielded an IC50 of 298 nM.
`Nc1nc(O)c2c(n1)CCC(CCc1ccc(C(=O)N[C@@H](CCC(=O)O)C(=O)O)cc1)N2C=O` (stereo partly drawn) [4-[2-(2-Amino-4-hydroxy-5-formyl-5,6,7,8-tetrahydropyrido[3,2-d]pyrimidin-6-yl)ethyl] benzoyl-L-glutamic acid (22a)] gave an IC50 of 10100 nM.
For `Nc1nc(O)c2c(n1)CCC(CCc1ccc(C(=O)N[C@@H](CCC(=O)O)C(=O)O)cc1)N2` (stereo partly drawn) [4-[2-(2-Diamino-4-hydroxy-5,6,7,8-tetrahydropyrido[3,2-d]pyrimidin-6-yl)ethyl]benzoyl-L-glutamic acid (18a)], the IC50 was 59 nM.
In the case of `Nc1nc(N)c2c(n1)CCC(CCc1ccc(C(=O)N[C@@H](CCC(=O)O)C(=O)O)cc1)N2CC(Br)CBr` (stereo partly drawn) [4-[2-[2,4-Diamino-5-(2,3-dibromopropyl)-5,6,7,8-tetrahydropyrido[3,2-d]pyrimidin-6-yl]ethyl]benzoyl-L-glutamic acid (21a)], the IC50 is reported as 680 nM.
Molecule `Nc1nc(N)c2c(n1)CCC(CNc1ccc(C(=O)N[C@@H](CCC(=O)O)C(=O)O)cc1)N2C=O` (stereo partly drawn) [N-[4-[2-(2,4-Diamino-5-formyl-5,6,7,8-tetrahydropyrido[3,2-d]pyrimidin-6-yl)methyl]amino]benzoyl]-L-glutamic acid (24a)] has an IC50 of 590 nM.
